In article PMC12851007 (Angewandte Chemie (International Ed. in English), 2025) one finds EC50 data, which are given here for four compounds.

A short description of experiment [1]: CX4/LCG supramolecular tandem membrane assay, EYPC vesicles. It counts as in vitro ADME. The following applies: 25 µM lipid, EYPC⊃CX4/LCG-LUVs, 10 mM Hepes, pH 7.5, 25 °C; fractional activity at 590 s, Hill fit; error = SD of fit, n = 1. How it is done: Membrane Activity M easurements
Vesicle preparation. 100 µ L of a solution of 25 mg/ml of POPC in chloroform or 200 µ L of a solution of 25 mg/ml of EYPC in chloroform was purged with nitrogen and dried overnight under hi gh vacuum. The thin lipid film was rehydrated with 1 ml reh ydrati on buffer (= inside buffer, see Tabl e S2 ) b y agitation at room temperature for 30min and then subjected to 2 0 freeze- th aw c ycles (freezing in liquid nitro gen and thawing at 40 °C). […]
Ta b l e S 2. Combinations of lipids and inside and outside buffer for CX4/LCG -LUVs.
No. Lipid Inside buffer = rehydration buffer Outside buffer […]
Vesicle quality control. T o ensure the absence of the CX4/ LCG reporter pair in the ex travesicular ph ase, 20 µL of the collected liposome fr action w as diluted to 2 ml with outside buffer and the fluor escen ce (λ exc = 369 nm; λ em = 502 nm) was recorded during the addition of […]
A co nstant fluorescenc e intensity durin g the addition of the stron gl y bindin g sp ermine verified the complete removal o f unencapsulated materi al. The size distribution of the liposomes was confirmed b y DLS to be unimodal and in the range of 120 to 150 nm diameter. […] Subsequently, the time-dependent change in fluorescence intensity (λ exc = 369 nm; λ em = 502 nm) was record ed during addition of 20 µ L of peptide stock solutions of varying concentrations at 60 s. […]

The nature of experiment [2]: Dual-channel assay, CF channel, POPC vesicles. The following applies: 12.5 µM POPC⸧CX4/LCG-LUVs and 12.5 µM POPC⸧CF-LUVs in 10 mM Hepes, 175 mM glucose, pH 7.5, 25 °C; λexc 525/λem 545 nm; error = SD of fit, n = 1. It counts as biochemical. An excerpt:
With the established identical extravesicular conditions in both assays, we further envisaged a simultaneous measurement of both assays within the same solution to enhance the comparability of the measurements. This became possible after optimization of the excitation and emission wavelengths. […] A further optimization was required, because the dye concentrations in the CF assay and the CX4/LCG assay are largely different.^[ [51], [52] ^] Consequently, simultaneous monitoring requires the detection of a low amount of LCG in the presence of a high concentration of the much more brightly fluorescent CF, which challenges the dynamic range of a typical fluorescence spectrometer in a dual‐channel measurement. To reduce the fluorescence read‐out of CF, the excitation wavelength was shifted from the absorption maximum at ca. 490 nm to 525 nm, where CF has a much lower absorbance, and the emission in the CF channel was shifted from its maximum at ca. 515 nm to 545 nm to further reduce the fluorescence of CF. To maintain a high LCG fluorescence, excitation was performed at the absorption maximum at 369 nm. Since CF has a residual absorbance at this excitation wavelength, emission in the LCG channel was monitored at 475 nm instead of 502 nm to eliminate spill‐over of CF fluorescence into the LCG channel. […]
Time-dep endent fluores cence intensit y traces, I (t), were subsequentl y normalized to fractional intensities, If(t), using equation (1) and the concentration- dependent fractional intensities just before the addition of th e calibration co cktail, I f, w ere then normaliz ed to fr actional membran e activities, Y, using equation (2). The fractional membrane activities, Y, were subsequently plotted against the peptide concentration, c, and anal ysed using the Hill equation (3) to obtain the effective molar concentration, EC 50, and the Hill coefficient, n. For peptides with too low activity to determine Y max ex perimentall y, Y max was fixed at 1.0 during fitting. […]
Dual-Channel Measurements
Vesicles w ere prep ared a s described abov e (se e en try (4) in Table S2 and entry (3) in Table S3) and eluted with freshl y prepared 10 mM Hepes, 175mM glucos e, pH 7.5 i n the size exclusion chromatograph y. […] The fluorescence intensity w as simultaneous l y r eco rded in the CF chann el ( λ exc = 525 nm, λ em = 545 nm) and in the LCG channel ( λ exc = 369 nm, λ em = 475 nm) with an ex citation slit width of 5 nm and an emission slit width of 5 n m during addition of 20 µL peptide stock solution of varying concentrations at 60 s and 20 µL of a calibration

Where a SMILES comes first, the peptide text is derived from it.

With `CC[C@H](C)[C@H](NC(=O)[C@H](CCCCN)NC(=O)[C@@H](NC(=O)[C@@H](N)CCC(N)=O)[C@@H](C)CC)C(=O)N[C@@H](Cc1c[nH]c2ccccc12)C(=O)N[C@@H](Cc1ccccc1)C(=O)N[C@@H](CCC(N)=O)C(=O)N[C@@H](CC(N)=O)C(=O)N[C@@H](CCCNC(=N)N)C(=O)N[C@@H](CCCNC(=N)N)C(=O)N[C@@H](CCSC)C(=O)N[C@@H](CCCCN)C(=O)N[C@@H](Cc1c[nH]c2ccccc12)C(=O)N[C@@H](CCCCN)C(=O)N[C@@H](CCCCN)C(=O)O` (H-QIKIWFQNRRMKWKK-OH), the results for the EC50 in experiment [1] and in experiment [2] were 14 ± 3 µM and more than 1000 µM, respectively.

For `CC(C)C[C@H](NC(=O)[C@H](CC(C)C)NC(=O)[C@H](CCCNC(=N)N)NC(=O)[C@@H](N)CC(C)C)C(=O)N[C@@H](CCCNC(=N)N)C(=O)N[C@@H](Cc1c[nH]c2ccccc12)C(N)=O` [LRLLRW] (H-LRLLRW-NH2), the EC50 in experiment [2] was 49 ± 6 µM.

In experiment [2], `CC(C)[C@H](NC(=O)[C@H](CCCCN)NC(=O)[C@H](CCCNC(=N)N)NC(=O)[C@H](CCCCN)NC(=O)[C@H](CCCCN)NC(=O)[C@H](CCCCN)NC(=O)[C@@H]1CCCN1C(=O)[C@H](CCC(N)=O)NC(=O)[C@H](CO)NC(=O)[C@H](Cc1c[nH]c2ccccc12)NC(=O)[C@H](CC(=O)O)NC(=O)[C@@H](NC(=O)[C@H](Cc1c[nH]c2ccccc12)NC(=O)[C@H](Cc1c[nH]c2ccccc12)NC(=O)[C@@H](NC(=O)[C@H](CC(=O)O)NC(=O)[C@H](Cc1c[nH]c2ccccc12)NC(=O)[C@H](Cc1c[nH]c2ccccc12)NC(=O)[C@@H](NC(=O)[C@H](CC(=O)O)NC(=O)[C@@H](N)CCCCN)[C@@H](C)O)[C@@H](C)O)[C@@H](C)O)C(=O)O` [Pep‐1] (H-KDTWWDTWWTDWSQPKKKRKV-OH) came in with an EC50 of more than 1000 µM.

In experiment [2], `CC[C@H](C)[C@H](NC(=O)[C@H](CCCCN)NC(=O)[C@H](CCCCN)NC(=O)[C@H](C)NC(=O)[C@H](CC(C)C)NC(=O)[C@H](C)NC(=O)[C@H](C)NC(=O)[C@H](CC(C)C)NC(=O)[C@H](C)NC(=O)[C@H](CCCCN)NC(=O)[C@H](CC(C)C)NC(=O)[C@H](CC(N)=O)NC(=O)[C@@H](NC(=O)[C@H](CCCCN)NC(=O)CNC(=O)[C@H](CC(C)C)NC(=O)[C@H](CC(C)C)NC(=O)[C@H](Cc1ccc(O)cc1)NC(=O)CNC(=O)[C@H](C)N)[C@@H](C)CC)C(=O)N[C@@H](CC(C)C)C(=O)O` [TP10] came in with an EC50 of 0.053 ± 0.007 µM.
